In patent US20230295152A1 (SENDA BIOSCIENCES, INC., priority 2019, published 2023):

Target: T1, AHR (Homo sapiens, UniProt P35869)
T1 construct: other cell line with a DRE-luciferase reporter stably transfected; endogenous in cells; host or cells: HepG2 AhR-Lucia reporter cells
T1 sequence (P35869 11-848): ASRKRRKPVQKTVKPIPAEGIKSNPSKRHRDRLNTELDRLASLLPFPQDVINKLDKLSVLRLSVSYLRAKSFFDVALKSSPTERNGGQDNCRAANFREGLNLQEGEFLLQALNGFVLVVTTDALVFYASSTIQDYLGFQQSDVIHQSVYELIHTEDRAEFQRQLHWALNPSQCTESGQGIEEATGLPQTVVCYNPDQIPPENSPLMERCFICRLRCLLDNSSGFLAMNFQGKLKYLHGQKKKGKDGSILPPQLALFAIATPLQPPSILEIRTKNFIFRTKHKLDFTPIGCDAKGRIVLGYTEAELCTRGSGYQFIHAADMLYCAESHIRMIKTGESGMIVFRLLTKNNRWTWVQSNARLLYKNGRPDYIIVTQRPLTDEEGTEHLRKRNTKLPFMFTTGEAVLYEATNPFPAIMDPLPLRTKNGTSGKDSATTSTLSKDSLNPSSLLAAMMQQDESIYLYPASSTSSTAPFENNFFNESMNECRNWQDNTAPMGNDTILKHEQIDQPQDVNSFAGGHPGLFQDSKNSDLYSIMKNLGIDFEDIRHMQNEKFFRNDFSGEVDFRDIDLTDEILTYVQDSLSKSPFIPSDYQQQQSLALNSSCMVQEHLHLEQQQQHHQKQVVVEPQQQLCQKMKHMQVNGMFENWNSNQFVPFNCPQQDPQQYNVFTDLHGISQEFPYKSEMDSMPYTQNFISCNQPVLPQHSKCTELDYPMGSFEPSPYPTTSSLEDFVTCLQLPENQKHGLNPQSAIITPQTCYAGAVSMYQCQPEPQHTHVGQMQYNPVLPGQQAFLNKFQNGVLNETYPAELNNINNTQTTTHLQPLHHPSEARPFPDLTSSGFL
Experiment: DRE-Luciferase Reporter Assay, HepG2 AhR-Lucia reporter cells
Format: cell-based
Conditions: with AHR activating ligand at EC50, read-out: HepG2-Luc IC50
Method in brief: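 Antagonism read as inhibition of agonist-driven secreted luciferase in stably DRE-reporter-transfected cells such as HepG2 AhR-Lucia. Agonist ligand at EC50 concentration added 1 hr post-plating alongside antagonist (log series, top 100 uM); supernatant read at 24 or 48 h, IC50 derived against agonist-only maximum.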

| SMILES | IC50 [nM] |
| --- | --- |
| C[C@@H](CO)n1cnc2c(-n3cccn3)nc(-c3ccc(C(F)(F)F)cn3)cc2c1=O [Compound 167, (S)-3-(1-hydroxypropan-2-yl)-8-(1H-pyrazol-1-yl)-6-(5-(trifluoromethyl)pyridin-2-yl)pyrido[3,4-d]pyrimidin-4(3H)-one] | 100 to 500 |
| C[C@@H](CO)n1cnc2c(-c3cnn(C)c3)nc(-c3cnc(C(F)(F)F)s3)cc2c1=O [Compound 168, (S)-3-(1-hydroxypropan-2-yl)-8-(1-methyl-1H-pyrazol-4-yl)-6-(2-(trifluoromethyl)thiazol-5-yl)pyrido[3,4-d]pyrimidin-4(3H)-one] | < 100 |
| O=c1c2cc(-c3cnc(C(F)(F)F)s3)nc(-c3cccnc3)c2ncn1[C@H]1COC[C@@H]1O [Compound 169, 3-((3S,4R)-4-hydroxytetrahydrofuran-3-yl)-8-(pyridin-3-yl)-6-(2-(trifluoromethyl)thiazol-5-yl)pyrido[3,4-d]pyrimidin-4(3H)-one] | < 100 |
| Cn1cc(-c2nc(-c3cnc(C(F)(F)F)s3)cc3c(=O)n(CC(C)(C)O)cnc23)cn1 [Compound 170, 3-(2-hydroxy-2-methylpropyl)-8-(1-methyl-1H-pyrazol-4-yl)-6-(2-(trifluoromethyl)thiazol-5-yl)pyrido[3,4-d]pyrimidin-4(3H)-one] | < 100 |
| Cn1cc(-c2nc(-c3cnc(C(F)(F)F)s3)cc3c(=O)n([C@H]4COC[C@@H]4O)cnc23)cn1 [Compound 171, 3-((3S,4R)-4-hydroxytetrahydrofuran-3-yl)-8-(1-methyl-1H-pyrazol-4-yl)-6-(2-(trifluoromethyl)thiazol-5-yl)pyrido[3,4-d]pyrimidin-4(3H)-one] | < 100 |
| Cn1cc(-c2nc(-c3cnc(C(F)(F)F)s3)cc3c(=O)n([C@@H]4COC[C@H]4O)cnc23)cn1 [Compound 172, 3-((3R,4S)-4-hydroxytetrahydrofuran-3-yl)-8-(1-methyl-1H-pyrazol-4-yl)-6-(2-(trifluoromethyl)thiazol-5-yl)pyrido[3,4-d]pyrimidin-4(3H)-one] | < 100 |
| O=c1c2cc(-c3cnc(C(F)(F)F)s3)nc(-c3cccnc3)c2ncn1[C@@H]1COC[C@H]1O [Compound 173, 3-((3R,4S)-4-hydroxytetrahydrofuran-3-yl)-8-(pyridin-3-yl)-6-(2-(trifluoromethyl)thiazol-5-yl)pyrido[3,4-d]pyrimidin-4(3H)-one] | 100 to 500 |
| CCN(CC)c1nc(-c2ccc(C(F)(F)F)nc2)cc2c(=O)n([C@@H](C)CO)cnc12 [Compound 174, (S)-8-(diethylamino)-3-(1-hydroxypropan-2-yl)-6-(6-(trifluoromethyl)pyridin-3-yl)pyrido[3,4-d]pyrimidin-4(3H)-one] | < 100 |
| C[C@@H](CO)n1cnc2c(N3CCCCC3)nc(-c3ccc(C(F)(F)F)nc3)cc2c1=O [Compound 175, (S)-3-(1-hydroxypropan-2-yl)-8-(piperidin-1-yl)-6-(6-(trifluoromethyl)pyridin-3-yl)pyrido[3,4-d]pyrimidin-4(3H)-one] | < 100 |
| C[C@@H](CO)n1cnc2c(N3CCCC3)nc(-c3ccc(C(F)(F)F)nc3)cc2c1=O [Compound 176, (S)-3-(1-hydroxypropan-2-yl)-8-(pyrrolidin-1-yl)-6-(6-(trifluoromethyl)pyridin-3-yl)pyrido[3,4-d]pyrimidin-4(3H)-one] | < 100 |
| C[C@@H](CO)n1cnc2c(N3CCOCC3)nc(-c3ccc(C(F)(F)F)nc3)cc2c1=O [Compound 178, (S)-3-(1-hydroxypropan-2-yl)-8-morpholino-6-(6-(trifluoromethyl)pyridin-3-yl)pyrido[3,4-d]pyrimidin-4(3H)-one] | < 100 |
| CC(C)(O)Cn1cnc2c(N3CCCCC3)nc(-c3ccc(C(F)(F)F)nc3)cc2c1=O [Compound 179, 3-(2-hydroxy-2-methylpropyl)-8-(piperidin-1-yl)-6-(6-(trifluoromethyl)pyridin-3-yl)pyrido[3,4-d]pyrimidin-4(3H)-one] | < 100 |
| C[C@@H](CO)n1cnc2c(-c3ccccn3)nc(-c3ccc(C(F)(F)F)nc3)cc2c1=O [Compound 180, (S)-3-(1-hydroxypropan-2-yl)-8-(pyridin-2-yl)-6-(6-(trifluoromethyl)pyridin-3-yl)pyrido[3,4-d]pyrimidin-4(3H)-one] | 100 to 500 |
| C[C@@H](CO)n1cnc2c(-c3cccnc3)nc(C3CCCCC3)cc2c1=O [Compound 181, (S)-6-cyclohexyl-3-(1-hydroxypropan-2-yl)-8-(pyridin-3-yl)pyrido[3,4-d]pyrimidin-4(3H)-one] | > 500 |
| C[C@@H](CO)n1cnc2c(-c3cccnc3)nc(-c3ccccn3)cc2c1=O [Compound 182, (S)-3-(1-hydroxypropan-2-yl)-6-(pyridin-2-yl)-8-(pyridin-3-yl)pyrido[3,4-d]pyrimidin-4(3H)-one] | 100 to 500 |
| C[C@@H](CO)n1cnc2c(-c3cccnc3)nc(-c3cnnn3C)cc2c1=O [Compound 184, (S)-3-(1-hydroxypropan-2-yl)-6-(1-methyl-1H-1,2,3-triazol-5-yl)-8-(pyridin-3-yl)pyrido[3,4-d]pyrimidin-4(3H)-one] | > 500 |
| Cc1ccc(-c2cc3c(=O)n([C@@H](C)CO)cnc3c(-c3cccnc3)n2)nc1 [Compound 186, (S)-3-(1-hydroxypropan-2-yl)-6-(5-methylpyridin-2-yl)-8-(pyridin-3-yl)pyrido[3,4-d]pyrimidin-4(3H)-one] | < 100 |
| Cc1cnc(-c2cc3c(=O)n([C@@H](C)CO)cnc3c(-c3cccnc3)n2)nc1 [Compound 187, (S)-3-(1-hydroxypropan-2-yl)-6-(5-methylpyrimidin-2-yl)-8-(pyridin-3-yl)pyrido[3,4-d]pyrimidin-4(3H)-one] | > 500 |
| C[C@@H](CO)n1cnc2c(C3=CCCCC3)nc(-c3ccc(C(F)(F)F)cn3)cc2c1=O [Compound 188, (S)-8-(cyclohex-1-en-1-yl)-3-(1-hydroxypropan-2-yl)-6-(5-(trifluoromethyl)pyridin-2-yl)pyrido[3,4-d]pyrimidin-4(3H)-one] | 100 to 500 |
| C[C@@H](CO)n1cnc2c(C3CCCCC3)nc(-c3ccc(C(F)(F)F)cn3)cc2c1=O [Compound 189, (S)-8-cyclohexyl-3-(1-hydroxypropan-2-yl)-6-(5-(trifluoromethyl)pyridin-2-yl)pyrido[3,4-d]pyrimidin-4(3H)-one] | > 500 |
| C[C@@H](CO)n1cnc2c(-c3cccnc3)nc(C(=O)N(C)C)cc2c1=O [Compound 190, (S)-3-(1-hydroxypropan-2-yl)-N,N-dimethyl-4-oxo-8-(pyridin-3-yl)-3,4-dihydropyrido[3,4-d]pyrimidine-6-carboxamide] | > 500 |
| C[C@@H](CO)n1cnc2c(-c3cn[nH]c3)nc(-c3ccc(C(F)(F)F)cn3)cc2c1=O [Compound 191, (S)-3-(1-hydroxypropan-2-yl)-8-(1H-pyrazol-4-yl)-6-(5-(trifluoromethyl)pyridin-2-yl)pyrido[3,4-d]pyrimidin-4(3H)-one] | < 100 |
| COCCc1cc2c(=O)n([C@@H](C)CO)cnc2c(-c2cccnc2)n1 [Compound 192, (S)-3-(1-hydroxypropan-2-yl)-6-(2-methoxyethyl)-8-(pyridin-3-yl)pyrido[3,4-d]pyrimidin-4(3H)-one] | > 500 |
